Reference: PMC11124822, “Discovery and Anticancer Screening of Novel Oxindole-Based Derivative Bearing Pyridyl Group as Potent and Selective Dual FLT3/CDK2 Kinase Inhibitor” (Pharmaceuticals, 2024)

Legend:
M14 = assay: NCI-60 antiproliferative screen (SRB); assay type: cell-based, human; conditions: Homo sapiens; 10 µM single dose, 48 h; M14 (Melanoma); read-out: Growth inhibition (%)
NCI-H23 = assay: NCI-60 antiproliferative screen (SRB); assay type: cell-based, human; conditions: Homo sapiens; 10 µM single dose, 48 h; NCI-H23 (NSCLC); read-out: Growth inhibition (%)
NCI/ADR-RES = assay: NCI-60 antiproliferative screen (SRB); assay type: cell-based, human; conditions: Homo sapiens; 10 µM single dose, 48 h; NCI/ADR-RES (Ovarian); read-out: Growth inhibition (%)
SF-539 = assay: NCI-60 antiproliferative screen (SRB); assay type: cell-based, human; conditions: Homo sapiens; 10 µM single dose, 48 h; SF-539 (CNS); read-out: Growth inhibition (%)
ACHN = assay: NCI-60 antiproliferative screen (SRB); assay type: cell-based, human; conditions: Homo sapiens; 10 µM single dose, 48 h; ACHN (Renal); read-out: Growth inhibition (%)
OVCAR-8 = assay: NCI-60 antiproliferative screen (SRB); assay type: cell-based, human; conditions: Homo sapiens; 10 µM single dose, 48 h; OVCAR-8 (Ovarian); read-out: Growth inhibition (%)
HT29 = assay: NCI-60 antiproliferative screen (SRB); assay type: cell-based, human; conditions: Homo sapiens, HT-29; 10 µM single dose, 48 h; HT29 (Colon); read-out: Growth inhibition (%)
[1] = test system: NCI-60 human cancer cell lines; assay: NCI-60 screen, full panel summary; assay type: cell-based; conditions: 10 µM single dose; for Mean Growth Percent: all NCI-60 cell lines
Description: In a comprehensive test, compounds were assayed at a single dose concentration (10^−5 M) in the full panel of NCI-60 cancer cell lines.

UACC-62 = assay: NCI-60 antiproliferative screen (SRB); assay type: cell-based, human; conditions: Homo sapiens; 10 µM single dose, 48 h; UACC-62 (Melanoma); read-out: Growth inhibition (%)
BT-549 = assay: NCI-60 antiproliferative screen (SRB); assay type: cell-based, human; conditions: Homo sapiens; 10 µM single dose, 48 h; BT-549 (Breast); read-out: Growth inhibition (%)
SK-OV-3 = assay: NCI-60 antiproliferative screen (SRB); assay type: cell-based, human; conditions: Homo sapiens; 10 µM single dose, 48 h; SK-OV-3 (Ovarian); read-out: Growth inhibition (%)
HOP-62 = assay: NCI-60 antiproliferative screen (SRB); assay type: cell-based, human; conditions: Homo sapiens; 10 µM single dose, 48 h; HOP-62 (NSCLC); read-out: Growth inhibition (%)
CAKI-1 = assay: NCI-60 antiproliferative screen (SRB); assay type: cell-based, human; conditions: Homo sapiens; 10 µM single dose, 48 h; CAKI-1 (Renal); read-out: Growth inhibition (%)
SK-MEL-5 = assay: NCI-60 antiproliferative screen (SRB); assay type: cell-based, human; conditions: Homo sapiens; 10 µM single dose, 48 h; SK-MEL-5 (Melanoma); read-out: Growth inhibition (%)
HOP-92 = assay: NCI-60 antiproliferative screen (SRB); assay type: cell-based, human; conditions: Homo sapiens; 10 µM single dose, 48 h; HOP-92 (NSCLC); read-out: Growth inhibition (%)
NCI-H460 = assay: NCI-60 antiproliferative screen (SRB); assay type: cell-based, human; conditions: Homo sapiens; 10 µM single dose, 48 h; NCI-H460 (NSCLC); read-out: Growth inhibition (%)
HCT-15 = assay: NCI-60 antiproliferative screen (SRB); assay type: cell-based, human; conditions: Homo sapiens; 10 µM single dose, 48 h; HCT-15 (Colon); read-out: Growth inhibition (%)
SR = assay: NCI-60 antiproliferative screen (SRB); conditions: Homo sapiens, 48 h, read-out: Growth inhibition (%)
Description: Anticancer activity was tested against 60 cancer cell lines (NCI-60) after 48h treatments with a single dosage of 10 μM of compounds by using sulforhodamine B assay [39] on the traditional 96-well platform. […] The human cancer cell lines of the NCI-60 panel are grown in RPMI 1640 medium supplemented with 5% FBS (fetal bovine serum) and 2 mM L-glutamine. […] For further analysis of promising compounds, five dose screens were performed against the NCI-60 panel. Drug treatments are performed in 5 doses using 10-fold or ½ log dose dilutions.

UACC-257 = assay: NCI-60 antiproliferative screen (SRB); assay type: cell-based, human; conditions: Homo sapiens; 10 µM single dose, 48 h; UACC-257 (Melanoma); read-out: Growth inhibition (%)
MDA-MB-435 = assay: NCI-60 antiproliferative screen (SRB); assay type: cell-based, human; conditions: Homo sapiens; 10 µM single dose, 48 h; MDA-MB-435 (Melanoma); read-out: Growth inhibition (%)
A498 = assay: NCI-60 antiproliferative screen (SRB); assay type: cell-based, human; conditions: Homo sapiens; 10 µM single dose, 48 h; A498 (Renal); read-out: Growth inhibition (%)
OVCAR-3 = assay: NCI-60 antiproliferative screen (SRB); assay type: cell-based, human; conditions: Homo sapiens; 10 µM single dose, 48 h; OVCAR-3 (Ovarian); read-out: Growth inhibition (%)
A549/ATCC = assay: NCI-60 antiproliferative screen (SRB); assay type: cell-based, human; conditions: Homo sapiens; 10 µM single dose, 48 h; A549/ATCC (NSCLC); read-out: Growth inhibition (%)
SNB-19 = assay: NCI-60 antiproliferative screen (SRB); assay type: cell-based, human; conditions: Homo sapiens; 10 µM single dose, 48 h; SNB-19 (CNS); read-out: Growth inhibition (%)
DU-145 = assay: NCI-60 antiproliferative screen (SRB); assay type: cell-based, human; conditions: Homo sapiens; 10 µM single dose, 48 h; DU-145 (Prostate); read-out: Growth inhibition (%)
OVCAR-4 = assay: NCI-60 antiproliferative screen (SRB); conditions: Homo sapiens, OVCAR-4, 48 h, read-out: Growth inhibition (%)
NCI-H322M = assay: NCI-60 antiproliferative screen (SRB); assay type: cell-based, human; conditions: Homo sapiens; 10 µM single dose, 48 h; NCI-H322M (NSCLC); read-out: Growth inhibition (%)
LOX IMVI = assay: NCI-60 antiproliferative screen (SRB); assay type: cell-based, human; conditions: Homo sapiens; 10 µM single dose, 48 h; LOX IMVI (Melanoma); read-out: Growth inhibition (%)
SW-620 = assay: NCI-60 antiproliferative screen (SRB); assay type: cell-based, human; conditions: Homo sapiens; 10 µM single dose, 48 h; SW-620 (Colon); read-out: Growth inhibition (%)

In the case of `O=C1Nc2ccccc2C1=Cc1ccc(OCc2ccccn2)cc1` (mixture of isomers) [Compound 5e, (E/Z)-3-[4-(Pyridin-2-ylmethoxy]benzylidene) indolin-2-one], the melting point was 221 to 224 °C, the inhibition at 10 µM (M14) was 8.3% and the inhibition at 10 µM (NCI-H23) was 21.4%. The inhibition at 10 µM (NCI/ADR-RES) was 46.7%, the inhibition at 10 µM (SF-539) was 35.3% and the inhibition at 10 µM (ACHN) was 33.6%. For the same compound, the inhibition at 10 µM (OVCAR-8) was 29.7%, the inhibition at 10 µM (HT29) was 16.2% and the “Positive Cytostatic Effect (cell lines with percent growth from 0 to 50 / total number of cell lines)” value [1] was 11/56. The “Positive Cytotoxic Effect (cell lines with percent growth of <0 / total number of cell lines)” value [1] was 0/56, the “Sensitive/Total Cell Lines” value [1] was 11/56 and the “The Most Sensitive Cell Line” value [1] was “HOP-92”. For the same compound, the “Mean Growth Percent” value [1] was 33.37, the inhibition at 10 µM (UACC-62) was 40.4% and the inhibition at 10 µM (BT-549) was 41.2%. For the same compound, the inhibition at 10 µM (SK-OV-3) was 16.8%, the inhibition at 10 µM (HOP-62) was 25.6% and the inhibition at 10 µM (CAKI-1) was 40.8%. It also gave an inhibition at 10 µM (SK-MEL-5) of 48.4%, an inhibition at 10 µM (HOP-92) of 69% and an inhibition at 10 µM (NCI-H460) of 15%. The inhibition at 10 µM (HCT-15) was 45.9%, the inhibition at 10 µM (SR) was 57.7% and the inhibition at 10 µM (UACC-257) was 12.6%. For the same compound, the inhibition at 10 µM (MDA-MB-435) was 10.1%, the inhibition at 10 µM (A498) was 16.4% and the inhibition at 10 µM (OVCAR-3) was 18.2%. For the same compound, the inhibition at 10 µM (A549/ATCC) was 29.2%, the inhibition at 10 µM (SNB-19) was 39.3% and the inhibition at 10 µM (DU-145) was 20.3%. For the same compound, the inhibition at 10 µM (OVCAR-4) was 30.8% and the inhibition at 10 µM (NCI-H322M) was 29.5%.
Compound `O=C1Nc2cc(Cl)ccc2C1=Cc1ccc(OCc2ccccn2)cc1` (mixture of isomers) [Compound 5h, (E/Z)-6-Chloro-3-[4-(pyridin-2-ylmethoxy)benzylidene]indolin-2-one] has a melting point of 260 to 263 °C, an inhibition at 10 µM (M14) of 20% and an inhibition at 10 µM (NCI-H23) of 47.4%. For the same compound, the inhibition at 10 µM (NCI/ADR-RES) was 39%, the inhibition at 10 µM (SF-539) was 57.7% and the inhibition at 10 µM (ACHN) was 9.61%. The inhibition at 10 µM (OVCAR-8) was 13.6%, the inhibition at 10 µM (HT29) was 19.7% and the “Positive Cytostatic Effect (cell lines with percent growth from 0 to 50 / total number of cell lines)” value [1] was 11/56. The “Positive Cytotoxic Effect (cell lines with percent growth of <0 / total number of cell lines)” value [1] was 0/56, the “Sensitive/Total Cell Lines” value [1] was 11/56 and the “The Most Sensitive Cell Line” value [1] was “OVCAR-4”. For the same compound, the “Mean Growth Percent” value [1] was 30.77, the inhibition at 10 µM (UACC-62) was 49.6% and the inhibition at 10 µM (BT-549) was 33.8%. It also gave an inhibition at 10 µM (SK-OV-3) of 4.39%, an inhibition at 10 µM (HOP-62) of 18.9% and an inhibition at 10 µM (CAKI-1) of 28.8%. It also gave an inhibition at 10 µM (SK-MEL-5) of 24%, an inhibition at 10 µM (HOP-92) of 35.8% and an inhibition at 10 µM (NCI-H460) of 56.7%. The inhibition at 10 µM (HCT-15) was 45.5%, the inhibition at 10 µM (SR) was 42.8% and the inhibition at 10 µM (UACC-257) was -2.1%. For the same compound, the inhibition at 10 µM (MDA-MB-435) was 23.9%, the inhibition at 10 µM (A498) was -11.5% and the inhibition at 10 µM (OVCAR-3) was 6.16%. It also gave an inhibition at 10 µM (A549/ATCC) of 62.5%, an inhibition at 10 µM (SNB-19) of 20% and an inhibition at 10 µM (DU-145) of 39.6%. The inhibition at 10 µM (OVCAR-4) was 75.8% and the inhibition at 10 µM (NCI-H322M) was 24.7%.
`O=C1Nc2ccc(Cl)cc2C1=Cc1ccc(OCc2ccccn2)cc1` (mixture of isomers) [Compound 5g, (E/Z)-5-Chloro-3-[4-(pyridin-2-ylmethoxy)benzylidene] indolin-2-one] showed a melting point of 219 to 220 °C, an inhibition at 10 µM (LOX IMVI) of 43.5% and an inhibition at 10 µM (M14) of 10.1%. For the same compound, the inhibition at 10 µM (NCI-H23) was 37.8%, the inhibition at 10 µM (NCI/ADR-RES) was 85.9% and the inhibition at 10 µM (SF-539) was 26.5%. For the same compound, the inhibition at 10 µM (ACHN) was 43%, the inhibition at 10 µM (OVCAR-8) was 54.1% and the inhibition at 10 µM (HT29) was 32.5%. For the same compound, the “Positive Cytostatic Effect (cell lines with percent growth from 0 to 50 / total number of cell lines)” value [1] was 17/59, the “Positive Cytotoxic Effect (cell lines with percent growth of <0 / total number of cell lines)” value [1] was 1/59 and the “Sensitive/Total Cell Lines” value [1] was 18/59. For the same compound, the “The Most Sensitive Cell Line” value [1] was “OVCAR-4”, the “number of cell lines with cytostatic effects” value [1] was 17 and the “number of cell lines with cytotoxic effects” value [1] was 1. The “Mean Growth Percent” value [1] was 38.63, the inhibition at 10 µM (UACC-62) was 33.3% and the inhibition at 10 µM (BT-549) was 21.2%. For the same compound, the inhibition at 10 µM (SK-OV-3) was 10.8%, the inhibition at 10 µM (HOP-62) was 54.4% and the inhibition at 10 µM (CAKI-1) was 38.4%. For the same compound, the inhibition at 10 µM (SK-MEL-5) was 10.5%, the inhibition at 10 µM (HOP-92) was 27.9% and the inhibition at 10 µM (NCI-H460) was 84%. For the same compound, the inhibition at 10 µM (SW-620) was 52.5%, the inhibition at 10 µM (HCT-15) was 64.3% and the inhibition at 10 µM (SR) was 45.1%. For the same compound, the inhibition at 10 µM (UACC-257) was -18.2%, the inhibition at 10 µM (MDA-MB-435) was 23.1% and the inhibition at 10 µM (A498) was 54.9%. For the same compound, the inhibition at 10 µM (OVCAR-3) was 42.7%, the inhibition at 10 µM (A549/ATCC) was 35.6% and the inhibition at 10 µM (SNB-19) was 49.3%. For the same compound, the inhibition at 10 µM (DU-145) was 12.2%, the inhibition at 10 µM (OVCAR-4) was 102% and the inhibition at 10 µM (NCI-H322M) was 35.8%.
